# Species: Rattus norvegicus
# Test: Open TG-GATES - Regimen: Single
# Type: toxicity, organism-based, Sprague-Dawley
# Design: regimen Single, gender Male, age 6 weeks
# Details: in vivo, po, 24 h, route gavage; for Bas / Eos / Hb / Ht / Lym / MCH / MCHC / MCV / Mono / Neu / Plat / RBC / Ret / WBC: tissue Blood; for KIDNEY_L / KIDNEY_R / KIDNEY_TOTAL: tissue Kidney; for LIVER: tissue Liver; for A/G / ALP / ALT / AST / BUN / CRE / Ca / Cl / DBIL / GLC / IP / K / Na / PL / RALB / TBIL / TC / TG / TP / gamma-GTP: tissue Plasma
smiles,measurement,setting,value
COc1cc2c(c3oc(=O)c4c(c13)CCC4=O)[C@@H]1C=CO[C@@H]1O2 [AFLATOXIN],TERMINAL_BW,"0 mg/kg, dose level Control",227.2 g
same,Bas,"0 mg/kg, dose level Control",0%
same,Eos,"0 mg/kg, dose level Control",1%
same,Hb,"0 mg/kg, dose level Control",12.7 g/dL
same,Ht,"0 mg/kg, dose level Control",37.5%
same,Lym,"0 mg/kg, dose level Control",79%
same,MCH,"0 mg/kg, dose level Control",20.7 pg
same,MCHC,"0 mg/kg, dose level Control",33.9%
same,MCV,"0 mg/kg, dose level Control",60.9 fL
same,Mono,"0 mg/kg, dose level Control",2.8%
same,Neu,"0 mg/kg, dose level Control",16.2%
same,Plat,"0 mg/kg, dose level Control",118.1 x10_4/uL
same,RBC,"0 mg/kg, dose level Control",616 x10_4/ul
same,Ret,"0 mg/kg, dose level Control",8.7%
same,WBC,"0 mg/kg, dose level Control",76.8 x10_2/uL
same,KIDNEY_L,"0 mg/kg, dose level Control",1 g
same,KIDNEY_R,"0 mg/kg, dose level Control",1 g
same,KIDNEY_TOTAL,"0 mg/kg, dose level Control",2.1 g
same,LIVER,"0 mg/kg, dose level Control",10.9 g
same,A/G,"0 mg/kg, dose level Control",1
same,ALP,"0 mg/kg, dose level Control",1775.8 IU/L
same,ALT,"0 mg/kg, dose level Control",40 IU/L
same,AST,"0 mg/kg, dose level Control",72.2 IU/L
same,BUN,"0 mg/kg, dose level Control",16.5 mg/dL
same,CRE,"0 mg/kg, dose level Control",0.2 mg/dL
same,Ca,"0 mg/kg, dose level Control",10.8 mg/dL
same,Cl,"0 mg/kg, dose level Control",104.1 meq/L
same,DBIL,"0 mg/kg, dose level Control",0.002 mg/dL
same,GLC,"0 mg/kg, dose level Control",189.4 mg/dL
same,IP,"0 mg/kg, dose level Control",7 mg/dL
same,K,"0 mg/kg, dose level Control",4.5 meq/L
same,Na,"0 mg/kg, dose level Control",139.2 meq/L
same,PL,"0 mg/kg, dose level Control",153.4 mg/dL
same,RALB,"0 mg/kg, dose level Control",2.8 g/dL
same,TBIL,"0 mg/kg, dose level Control",0 mg/dL
same,TC,"0 mg/kg, dose level Control",76.2 mg/dL
same,TG,"0 mg/kg, dose level Control",141.9 mg/dL
same,TP,"0 mg/kg, dose level Control",5.7 g/dL
same,gamma-GTP,"0 mg/kg, dose level Control",0.8 IU/L
same,TERMINAL_BW,"1 mg/kg, dose level Low",220.4 g
same,Bas,"1 mg/kg, dose level Low",0%
same,Eos,"1 mg/kg, dose level Low",0.8%
same,Hb,"1 mg/kg, dose level Low",12.8 g/dL
same,Ht,"1 mg/kg, dose level Low",37.6%
same,Lym,"1 mg/kg, dose level Low",74.6%
same,MCH,"1 mg/kg, dose level Low",20.5 pg
same,MCHC,"1 mg/kg, dose level Low",34.2%
same,MCV,"1 mg/kg, dose level Low",60 fL
same,Mono,"1 mg/kg, dose level Low",4.8%
same,Neu,"1 mg/kg, dose level Low",19.2%
same,Plat,"1 mg/kg, dose level Low",127.7 x10_4/uL
same,RBC,"1 mg/kg, dose level Low",627.4 x10_4/ul
same,Ret,"1 mg/kg, dose level Low",8.8%
same,WBC,"1 mg/kg, dose level Low",97.6 x10_2/uL
same,KIDNEY_L,"1 mg/kg, dose level Low",1 g
same,KIDNEY_R,"1 mg/kg, dose level Low",1 g
same,KIDNEY_TOTAL,"1 mg/kg, dose level Low",2 g
same,LIVER,"1 mg/kg, dose level Low",10.2 g
same,A/G,"1 mg/kg, dose level Low",1
same,ALP,"1 mg/kg, dose level Low",1769.4 IU/L
same,ALT,"1 mg/kg, dose level Low",59.6 IU/L
same,AST,"1 mg/kg, dose level Low",97 IU/L
same,BUN,"1 mg/kg, dose level Low",15.7 mg/dL
same,CRE,"1 mg/kg, dose level Low",0.2 mg/dL
same,Ca,"1 mg/kg, dose level Low",10.7 mg/dL
same,Cl,"1 mg/kg, dose level Low",103.9 meq/L
same,DBIL,"1 mg/kg, dose level Low",0.002 mg/dL
same,GLC,"1 mg/kg, dose level Low",171.4 mg/dL
same,IP,"1 mg/kg, dose level Low",7.5 mg/dL
same,K,"1 mg/kg, dose level Low",4.4 meq/L
same,Na,"1 mg/kg, dose level Low",138.8 meq/L
same,PL,"1 mg/kg, dose level Low",150.2 mg/dL
same,RALB,"1 mg/kg, dose level Low",2.8 g/dL
same,TBIL,"1 mg/kg, dose level Low",0 mg/dL
same,TC,"1 mg/kg, dose level Low",84.4 mg/dL
same,TG,"1 mg/kg, dose level Low",93.8 mg/dL
same,TP,"1 mg/kg, dose level Low",5.7 g/dL
same,gamma-GTP,"1 mg/kg, dose level Low",1 IU/L
same,TERMINAL_BW,"3 mg/kg, dose level Middle",219.9 g
same,Bas,"3 mg/kg, dose level Middle",0%
same,Eos,"3 mg/kg, dose level Middle",0.4%
same,Hb,"3 mg/kg, dose level Middle",13.4 g/dL
same,Ht,"3 mg/kg, dose level Middle",39.5%
same,Lym,"3 mg/kg, dose level Middle",74.2%
same,MCH,"3 mg/kg, dose level Middle",20.1 pg
same,MCHC,"3 mg/kg, dose level Middle",33.8%
same,MCV,"3 mg/kg, dose level Middle",59.5 fL
same,Mono,"3 mg/kg, dose level Middle",5.2%
same,Neu,"3 mg/kg, dose level Middle",18.6%
same,Plat,"3 mg/kg, dose level Middle",114.1 x10_4/uL
same,RBC,"3 mg/kg, dose level Middle",663 x10_4/ul
same,Ret,"3 mg/kg, dose level Middle",8.5%
same,WBC,"3 mg/kg, dose level Middle",84.9 x10_2/uL
same,KIDNEY_L,"3 mg/kg, dose level Middle",0.9 g
same,KIDNEY_R,"3 mg/kg, dose level Middle",0.9 g
same,KIDNEY_TOTAL,"3 mg/kg, dose level Middle",1.9 g
same,LIVER,"3 mg/kg, dose level Middle",10.1 g
same,A/G,"3 mg/kg, dose level Middle",1
same,ALP,"3 mg/kg, dose level Middle",1736.6 IU/L
same,ALT,"3 mg/kg, dose level Middle",135 IU/L
same,AST,"3 mg/kg, dose level Middle",232 IU/L
same,BUN,"3 mg/kg, dose level Middle",15.8 mg/dL
same,CRE,"3 mg/kg, dose level Middle",0.2 mg/dL
same,Ca,"3 mg/kg, dose level Middle",10.7 mg/dL
same,Cl,"3 mg/kg, dose level Middle",105.1 meq/L
same,DBIL,"3 mg/kg, dose level Middle",0.012 mg/dL
same,GLC,"3 mg/kg, dose level Middle",167.8 mg/dL
same,IP,"3 mg/kg, dose level Middle",8.1 mg/dL
same,K,"3 mg/kg, dose level Middle",4.4 meq/L
same,Na,"3 mg/kg, dose level Middle",139.3 meq/L
same,PL,"3 mg/kg, dose level Middle",168 mg/dL
same,RALB,"3 mg/kg, dose level Middle",2.7 g/dL
same,TBIL,"3 mg/kg, dose level Middle",0.01 mg/dL
same,TC,"3 mg/kg, dose level Middle",84.4 mg/dL
same,TG,"3 mg/kg, dose level Middle",112.4 mg/dL
same,TP,"3 mg/kg, dose level Middle",5.5 g/dL
same,gamma-GTP,"3 mg/kg, dose level Middle",1.5 IU/L
same,TERMINAL_BW,"10 mg/kg, dose level High",214.9 g
same,Bas,"10 mg/kg, dose level High",0%
same,Eos,"10 mg/kg, dose level High",0.6%
same,Hb,"10 mg/kg, dose level High",14 g/dL
same,Ht,"10 mg/kg, dose level High",40.8%
same,Lym,"10 mg/kg, dose level High",47.8%
same,MCH,"10 mg/kg, dose level High",20.7 pg
same,MCHC,"10 mg/kg, dose level High",34.3%
same,MCV,"10 mg/kg, dose level High",60.5 fL
same,Mono,"10 mg/kg, dose level High",2.8%
same,Neu,"10 mg/kg, dose level High",47%
same,Plat,"10 mg/kg, dose level High",104.8 x10_4/uL
same,RBC,"10 mg/kg, dose level High",674.6 x10_4/ul
same,Ret,"10 mg/kg, dose level High",8.4%
same,WBC,"10 mg/kg, dose level High",101.9 x10_2/uL
same,KIDNEY_L,"10 mg/kg, dose level High",1 g
same,KIDNEY_R,"10 mg/kg, dose level High",1 g
same,KIDNEY_TOTAL,"10 mg/kg, dose level High",2 g
same,LIVER,"10 mg/kg, dose level High",9 g
same,A/G,"10 mg/kg, dose level High",1
same,ALP,"10 mg/kg, dose level High",2013.2 IU/L
same,ALT,"10 mg/kg, dose level High",292.6 IU/L
same,AST,"10 mg/kg, dose level High",630.8 IU/L
same,BUN,"10 mg/kg, dose level High",19.7 mg/dL
same,CRE,"10 mg/kg, dose level High",0.2 mg/dL
same,Ca,"10 mg/kg, dose level High",10.7 mg/dL
same,Cl,"10 mg/kg, dose level High",103.7 meq/L
same,DBIL,"10 mg/kg, dose level High",0.094 mg/dL
same,GLC,"10 mg/kg, dose level High",153.2 mg/dL
same,IP,"10 mg/kg, dose level High",9.1 mg/dL
same,K,"10 mg/kg, dose level High",4.1 meq/L
same,Na,"10 mg/kg, dose level High",138.9 meq/L
same,PL,"10 mg/kg, dose level High",158.2 mg/dL
same,RALB,"10 mg/kg, dose level High",2.8 g/dL
same,TBIL,"10 mg/kg, dose level High",0.1 mg/dL
same,TC,"10 mg/kg, dose level High",87.4 mg/dL
same,TG,"10 mg/kg, dose level High",32.9 mg/dL
same,TP,"10 mg/kg, dose level High",5.6 g/dL
same,gamma-GTP,"10 mg/kg, dose level High",2.9 IU/L

# Source: ChEMBL document CHEMBL3885861, “Open TG-GATES”
